Source: ChEMBL document CHEMBL4680354, “Design, synthesis and biological evaluation of novel indanone containing spiroisoxazoline derivatives with selective COX-2 inhibition as anticancer agents” (Bioorg Med Chem, 2021)

Columns and labels:
MCF7 [1] = test: Antiproliferative activity against human cells MCF-7 assessed as reduction in cell viability incubated for 24 hrs by MTT assay; assay type: functional, cell-based; settings: MCF7, 24 h
HT-29 = test: Antiproliferative activity against human HT-29 cells assessed as reduction in cell viability incubated for 72 hrs by MTT assay; assay type: functional, cell-based; settings: HT-29, 72 h
HEK293 = test: Cytotoxicity against human HEK293 cells assessed as reduction in cell viability incubated for 72 hrs by MTT assay; assay type: cell-based; settings: HEK293, 72 h
MCF7 [2] = test: Antiproliferative activity against human cells MCF-7 assessed as reduction in cell viability incubated for 48 hrs by MTT assay; assay type: functional, cell-based; settings: MCF7, 48 h
[3] = molecular target: T1, Prostaglandin G/H synthase 1 (Ovis aries, UniProt P05979); test: Inhibition of Ovine COX-1 by chemiluminescent enzyme method
T1 sequence (P05979 whole entry): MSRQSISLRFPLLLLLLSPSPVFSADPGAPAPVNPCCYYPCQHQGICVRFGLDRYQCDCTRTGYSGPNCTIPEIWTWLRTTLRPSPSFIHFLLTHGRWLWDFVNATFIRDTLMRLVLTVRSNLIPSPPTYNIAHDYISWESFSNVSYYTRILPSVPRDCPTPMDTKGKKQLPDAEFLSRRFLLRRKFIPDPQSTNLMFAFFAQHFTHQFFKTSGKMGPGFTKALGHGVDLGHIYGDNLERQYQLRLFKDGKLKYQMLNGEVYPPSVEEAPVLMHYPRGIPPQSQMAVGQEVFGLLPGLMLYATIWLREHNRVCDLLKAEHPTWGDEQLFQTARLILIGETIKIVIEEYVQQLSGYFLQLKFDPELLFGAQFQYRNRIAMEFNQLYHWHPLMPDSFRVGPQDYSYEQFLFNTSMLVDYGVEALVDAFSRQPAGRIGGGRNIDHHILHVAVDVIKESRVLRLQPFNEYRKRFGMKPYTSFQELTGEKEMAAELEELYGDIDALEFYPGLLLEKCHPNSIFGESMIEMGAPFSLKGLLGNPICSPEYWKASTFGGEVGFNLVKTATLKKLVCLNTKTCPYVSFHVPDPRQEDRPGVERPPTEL

MCF-10A = test: Antiproliferative activity against human MCF10A cells assessed as reduction in cell viability incubated for 72 hrs by MTT assay; assay type: functional, cell-based
MCF7 [4] = test: Antiproliferative activity against human MCF-7 cells assessed as reduction in cell viability incubated for 72 hrs by MTT assay; assay type: functional, cell-based; settings: MCF7, 72 h
MCF7 [5] = test: Induction of apoptosis in human MCF7 cells assessed as viable cells at IC50 measured after 72 hrs by Annexin-V/propidium iodide staining-based flow cytometric analysis (reference value: […]); assay type: functional
MCF7 [6] = test: Induction of apoptosis in human MCF7 cells assessed as necrotic cells at IC50 measured after 72 hrs by Annexin-V/propidium iodide staining-based flow cytometric analysis (reference value: 4.7%); assay type: functional
MCF7 [7] = test: Induction of apoptosis in human MCF7 cells assessed as late apoptotic cells at IC50 measured after 72 hrs by Annexin-V/propidium iodide staining-based flow cytometric analysis (reference value: 92.7%); assay type: functional
MCF7 [8] = test: Induction of apoptosis in human MCF7 cells assessed as early apoptotic cells at IC50 measured after 72 hrs by Annexin-V/propidium iodide staining-based flow cytometric analysis (reference value: 1.1%); assay type: functional

`COc1cc(C2=NOC3(Cc4ccccc4C3=O)C2c2ccc(S(C)(=O)=O)cc2)cc(OC)c1OC` (configuration not stated) was tested, and the IC50 (MCF7 [1]) was 17.6 µM, the IC50 (HT-29) was 112 µM and the IC50 (HEK293) was 70.8 µM. The IC50 (MCF7 [2]) was 3.96 µM, the IC50 [3] was 12.8 µM and the IC50 (MCF-10A) was greater than 100 µM. It also gave an IC50 (MCF7 [4]) of 0.87 µM.
Compound `Cc1ccc(C2=NOC3(Cc4ccccc4C3=O)C2c2ccc(S(C)(=O)=O)cc2)cc1` (configuration not stated) has an IC50 (HT-29) of 73 µM, an IC50 (HEK293) of 82.4 µM and an IC50 (MCF7 [2]) of 25.7 µM. It also gave an IC50 [3] of 10.1 µM, an IC50 (MCF-10A) greater than 100 µM and an IC50 (MCF7 [4]) of 0.17 µM.
`CC[C@]1(O)C[C@H]2CN(CCc3c([nH]c4ccccc34)[C@@](C(=O)OC)(c3cc4c(cc3OC)N(C=O)[C@H]3[C@@](O)(C(=O)OC)[C@H](OC(C)=O)[C@]5(CC)C=CCN6CC[C@]43[C@@H]65)C2)C1` [VINCRISTINE] showed an IC50 (MCF7 [1]) of 0.92 µM, an IC50 (HT-29) of 1.74 µM and an IC50 (MCF7 [4]) of 0.89 µM.
Work on `CS(=O)(=O)c1ccc(C2C(c3ccccc3)=NOC23Cc2ccccc2C3=O)cc1` (configuration not stated) yielded an IC50 (HT-29) of 239 µM, an IC50 (HEK293) greater than 100 µM and an IC50 (MCF7 [2]) of 17.1 µM. It also gave an IC50 [3] of 11.4 µM, an IC50 (MCF-10A) greater than 100 µM and an IC50 (MCF7 [4]) of 8.53 µM.
`CS(=O)(=O)c1ccc(C2C(c3ccc(Cl)cc3)=NOC23Cc2ccccc2C3=O)cc1` (configuration not stated) gave an IC50 (HT-29) of 99.3 µM, an IC50 (HEK293) of 37.7 µM and an IC50 (MCF7 [2]) of 64.8 µM. For the same compound, the IC50 [3] was 9.43 µM, the IC50 (MCF-10A) was 22.5 µM and the IC50 (MCF7 [4]) was 1.2 µM.
In the case of `CC[C@]1(O)C[C@@H]2CN(CCc3c([nH]c4ccccc34)[C@@](C(=O)OC)(c3cc4c(cc3OC)N(C)[C@H]3[C@@](O)(C(=O)OC)[C@H](OC(C)=O)[C@]5(CC)C=CCN6CC[C@]43[C@@H]65)C2)C1` [VINBLASTINE], the IC50 (MCF7 [1]) is reported as 0.23 µM and the IC50 (HT-29) is reported as 3.18 µM.
`CS(=O)(=O)c1ccc(C2C(c3ccc(F)cc3)=NOC23Cc2ccccc2C3=O)cc1` (configuration not stated) gave an IC50 (HT-29) of 55.4 µM, an IC50 (HEK293) of 0.64 µM and an IC50 (MCF7 [2]) of 16.5 µM. For the same compound, the IC50 [3] was 10.8 µM, the IC50 (MCF-10A) was 3.21 µM and the IC50 (MCF7 [4]) was 0.14 µM.
`COc1ccc(C2=NOC3(Cc4ccccc4C3=O)C2c2ccc(S(C)(=O)=O)cc2)cc1OC` (configuration not stated) gave an IC50 (MCF7 [1]) of 10.5 µM, an IC50 (HT-29) of 43.7 µM and an Activity (MCF7 [5]) of 2.5%. It also gave an IC50 (HEK293) greater than 100 µM, an Activity (MCF7 [6]) of 15.6% and an IC50 (MCF7 [2]) of 1.03 µM. For the same compound, the Activity (MCF7 [7]) was 44.7%, the IC50 [3] was 12.1 µM and the Activity (MCF7 [8]) was 37.2%. It also gave an IC50 (MCF-10A) greater than 100 µM and an IC50 (MCF7 [4]) of 0.03 µM.
`Cc1ccc(-c2cc(C(F)(F)F)nn2-c2ccc(S(N)(=O)=O)cc2)cc1` [CELECOXIB] was tested, and the IC50 (MCF7 [1]) was 19.8 µM, the IC50 (HT-29) was 18 µM and the IC50 (MCF7 [2]) was 16 µM.
`COc1cccc2c1C(=O)c1c(O)c3c(c(O)c1C2=O)C[C@@](O)(C(=O)CO)C[C@@H]3O[C@H]1C[C@H](N)[C@H](O)[C@H](C)O1` [DOXORUBICIN] was tested, and the IC50 (HT-29) was 1.57 µM.
`COc1ccc(C2=NOC3(Cc4ccccc4C3=O)C2c2ccc(S(C)(=O)=O)cc2)cc1` (configuration not stated) gave an IC50 (HT-29) of 68.5 µM, an IC50 (HEK293) greater than 100 µM and an IC50 (MCF7 [2]) greater than 100 µM. It also gave an IC50 [3] of 9.89 µM, an IC50 (MCF-10A) greater than 100 µM and an IC50 (MCF7 [4]) of 0.65 µM.
